In patent US4737510A, “Bioactive metabolites from the caribbean sponge agelas coniferin” (priority 1986, dated 1988):
Several values for one entry are separate records, joined by “and”; a condition that tells them apart may be missing. Equal entries are not always repeated. Where two headings read alike, the source gives them in different places.

How the values were obtained:
[1] = tested on: vesicular stomatitis virus (VSV); experiment: microbe, parasite or virus in culture; format: cell-based; conditions: Vesicular stomatitis virus, in Primates
[2] = Water solubility (in words); format: physicochemical; conditions: relative to 1a-6a
[3] = tested on: Balanus amphitrite amphitrite; experiment: Barnacle settlement assay, facilitation; format: in vivo, Balanus amphitrite amphitrite (barnacle); conditions: Amphibalanus amphitrite
[4] = Stability of isolated solids; format: physicochemical; conditions: diacetate salts, amorphous solids
[5] = tested on: Monkey Kidney Cells (CV-1); experiment: Cytotoxicity to monkey kidney cells (CV-1) determined by Dr. R. G. Hughes, Jr.; conditions: 8 or less essentially indicates noncytotoxicity
[6] = tested on: Escherichia coli; experiment: Disc diffusion antimicrobial assay, Escherichia coli; format: cell-based; conditions: for zone of inhibition at 10 µg/disc / zone of inhibition at 50 µg/disc / zone of inhibition at 100 µg/disc: Escherichia coli, 6.5 mm disc, read-out: diameter of the clear zone of inhibition; for zone of inhibition at 10 µg/disc / activity against Escherichia coli: 10 μg/disk; for zone of inhibition at 50 µg/disc: 50 μg/disk; for zone of inhibition at 100 µg/disc: 100 μg/disk
[7] = tested on: Herpes Simplex Virus type 1 (HSV-1); experiment: Antiviral activity against HSV-1 determined by Dr. R. G. Hughes, Jr.;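 note: grades: +++ strong ++ moderate + light ± questionable - negative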; format: cell-based
[8] = tested on: Bacillus subtilis; experiment: Disc diffusion antimicrobial assay, Bacillus subtilis; format: cell-based; conditions: for zone of inhibition at 10 µg/disc / zone of inhibition at 50 µg/disc / zone of inhibition at 100 µg/disc: Bacillus subtilis, 6.5 mm disc, read-out: diameter of the clear zone of inhibition; for zone of inhibition at 50 µg/disc: 50 μg/disk; for zone of inhibition at 100 µg/disc: 100 μg/disk
[9] = tested on: Herpes simplex virus, type I (HSV-1); experiment: microbe, parasite or virus in culture; format: cell-based; conditions: for zone of inhibition at 20 µg/disc / zone of inhibition at 50 µg/disc / zone of inhibition at 100 µg/disc / zone of inhibition at 200 µg/disc: Human alphaherpesvirus 1, in Primates
[10] = tested on: E. coli strain BR339; format: cell-based
[11] = tested on: Balanus amphitrite amphitrite; experiment: Barnacle settlement assay, inhibition; format: in vivo, Balanus amphitrite amphitrite (barnacle); conditions: Amphibalanus amphitrite
[12] = read-out: antiviral activity, VSV, ++ scale
[13] = read-out: antiviral activity, VSV, zone diameter
[14] = read-out: antiviral activity, HSV-1, ++ scale
[15] = read-out: antiviral activity, HSV-1, zone diameter

| SMILES | zone of inhibition at 20 µg/disc [1, 12] | zone of inhibition at 100 µg/disc [1, 12] | zone of inhibition at 200 µg/disc [1, 12] | zone of inhibition at 20 µg/disc [1, 13] | zone of inhibition at 100 µg/disc [1, 13] | cytotoxicity, zone diameter ([5]; 25 μg/disk) | cytotoxicity, zone diameter ([5]; 50 μg/disk) | cytotoxicity, zone diameter ([5]; 100 μg/disk) | zone of inhibition at 10 µg/disc [6] | zone of inhibition at 50 µg/disc [6] | zone of inhibition at 100 µg/disc [6] | HSV-1 activity ([7]; 25 μg/disk) | HSV-1 activity ([7]; 50 μg/disk) | HSV-1 activity ([7]; 100 μg/disk) | zone of inhibition at 10 µg/disc ([8]; 10 μg/disk) | zone of inhibition at 50 µg/disc [8] | zone of inhibition at 100 µg/disc [8] | zone of inhibition at 20 µg/disc [9, 14] | zone of inhibition at 50 µg/disc [9, 14] | zone of inhibition at 100 µg/disc [9, 14] | also measured |
| --- | --- | --- | --- | --- | --- | --- | --- | --- | --- | --- | --- | --- | --- | --- | --- | --- | --- | --- | --- | --- | --- |
| NC1=NC(=O)C(C2C(CNC(=O)c3cc(Br)c[nH]3)C(CNC(=O)c3cc(Br)c[nH]3)C2c2cnc(N)[nH]2)N1 (centres unmarked) [Compound 8a, Oxysceptrin Acetate] | < 7 mm | 8 to 10 mm | 8 to 10 mm | 0 mm | 8 mm | 5 mm | 5 mm | 6 mm | 0 mm | 8 mm | 10 mm | - | - | + | 0 mm | 14 mm | 15 mm | < 7 mm | 8 to 10 mm | 11 to 15 mm | zone of inhibition at 50 µg/disc [1, 12]: < 7 mm; zone of inhibition at 50 µg/disc [1, 13]: 0 mm; water solubility [2]: more water soluble; EC50 [3]: 0.017 µg/mL; stability [4]: stable; antiviral zone appearance [9]: diffuse zones; zone of inhibition at 200 µg/disc [9, 14]: 11 to 15 mm; zone of inhibition at 20 µg/disc [9, 15]: 0 mm; zone of inhibition at 100 µg/disc [9, 15]: 11 mm; zone of inhibition at 200 µg/disc [9, 15]: 12 mm; BIA activity [10]: inducers; BIA activity, numerical color intensity scale 0-10 [10]: 9 and 6; BIA zone appearance [10]: more diffuse zone |
| Nc1ncc(C2c3nc(N)[nH]c3CC(CNC(=O)c3cc(Br)c[nH]3)C2CNC(=O)c2cc(Br)c[nH]2)[nH]1 (centres unmarked) [Compound 4a, Ageliferin Acetate] | < 7 mm | 8 to 10 mm | 11 to 15 mm | 0 mm | 10 mm | 5 mm | 5 mm | 8 mm | 7 mm | 9 mm | 9 mm | - | + | ++ | 10 mm | 15 mm | 16 mm | 8 to 10 mm | 11 to 15 mm | 11 to 15 mm | zone of inhibition at 50 µg/disc [1, 12]: 8 to 10 mm; zone of inhibition at 50 µg/disc [1, 13]: 8 mm; zone of inhibition at 200 µg/disc [1, 13]: 12 mm; EC50 [11]: 21 µg/mL; activity against Escherichia coli [6]: active; zone of inhibition at 200 µg/disc [9, 14]: > 16 mm; zone of inhibition at 20 µg/disc [9, 15]: 10 mm; zone of inhibition at 50 µg/disc [9, 15]: 13 mm; zone of inhibition at 100 µg/disc [9, 15]: 14 mm; zone of inhibition at 200 µg/disc [9, 15]: 17 mm |
| Nc1ncc(C2c3nc(N)[nH]c3CC(CNC(=O)c3cc(Br)c(Br)[nH]3)C2CNC(=O)c2cc(Br)c[nH]2)[nH]1 (centres unmarked) [Compound 5a, Bromoageliferin Acetate] | < 7 mm | 8 to 10 mm | 8 to 10 mm | 0 mm | 10 mm | 5 mm | 5 mm | 7 mm | 7 mm | 8 mm | 8 mm | - | ± | ++ | 10 mm | 12 mm | 12 mm | 8 to 10 mm | 11 to 15 mm | 11 to 15 mm | zone of inhibition at 50 µg/disc [1, 12]: < 7 mm; zone of inhibition at 50 µg/disc [1, 13]: 0 mm; zone of inhibition at 200 µg/disc [1, 13]: 10 mm; activity against Escherichia coli [6]: active; zone of inhibition at 200 µg/disc [9, 14]: 11 to 15 mm; zone of inhibition at 20 µg/disc [9, 15]: 9 mm; zone of inhibition at 50 µg/disc [9, 15]: 11 mm; zone of inhibition at 100 µg/disc [9, 15]: 11 mm; zone of inhibition at 200 µg/disc [9, 15]: 13 mm; BIA activity, numerical color intensity scale 0-10 [10]: 3 and 2 |
| Nc1ncc([C@@H]2[C@@H](CNC(=O)c3cc(Br)c(Br)[nH]3)[C@H](CNC(=O)c3cc(Br)c(Br)[nH]3)[C@H]2c2cnc(N)[nH]2)[nH]1 (relative stereo) [Compound 3a, Dibromosceptrin Acetate] | < 7 mm | 8 to 10 mm | 11 to 15 mm | 0 mm | 10 mm | 5 mm | 5 mm | 7 mm | 0 mm | 7 mm | 7 mm | - | ++ | +++ | 0 mm | 10 mm | 10 mm | 8 to 10 mm | 11 to 15 mm | 11 to 15 mm | zone of inhibition at 200 µg/disc [1, 13]: 12 mm; zone of inhibition at 200 µg/disc [9, 14]: 11 to 15 mm; zone of inhibition at 20 µg/disc [9, 15]: 9 mm; zone of inhibition at 50 µg/disc [9, 15]: 11 mm; zone of inhibition at 100 µg/disc [9, 15]: 12 mm; zone of inhibition at 200 µg/disc [9, 15]: 14 mm; BIA activity [10]: somewhat less active; BIA activity, numerical color intensity scale 0-10 [10]: 3 and 2 |
| Nc1ncc([C@@H]2[C@@H](CNC(=O)c3ccc[nH]3)[C@H](CNC(=O)c3cc(Br)c[nH]3)[C@H]2c2cnc(N)[nH]2)[nH]1 (relative stereo) [Compound 1a, Debromosceptrin Acetate] | < 7 mm | 7 mm | 8 to 10 mm | 0 mm | 7 mm | 5 mm | 5 mm | 5 mm | 0 mm | 8 mm | 11 mm | ± | ± | ± | 7 mm | 11 mm | 12 mm | 11 to 15 mm | 11 to 15 mm | 11 to 15 mm | zone of inhibition at 50 µg/disc [1, 12]: < 7 mm; zone of inhibition at 50 µg/disc [1, 13]: 0 mm; zone of inhibition at 200 µg/disc [1, 13]: 8 mm; growth inhibition of Bacillus subtilis ([8]; 10 μg/disk): most active; zone of inhibition at 200 µg/disc [9, 14]: > 16 mm; zone of inhibition at 20 µg/disc [9, 15]: 11 mm; zone of inhibition at 50 µg/disc [9, 15]: 12 mm; zone of inhibition at 100 µg/disc [9, 15]: 15 mm; zone of inhibition at 200 µg/disc [9, 15]: 18 mm; BIA activity [10]: inducers; BIA activity, numerical color intensity scale 0-10 [10]: 10 and 7 and 6 |
